These results are taken from paper PMC7463651, “Phase I/Ib Study of Tenalisib (RP6530), a Dual PI3K δ/γ Inhibitor in Patients with Relapsed/Refractory T-Cell Lymphoma” (Cancers, 2020).

In data set [1] the test system is relapsed/refractory PTCL. Description: Efficacy assessment (ORR, DoR), PTCL patients. As to conditions: for Median DoR (95% CI) / ORR (95% CI): PTCL. The format is in vivo, human. As for the experimental part:
Efficacy assessments included radiological, bone marrow biopsy/aspiration and skin assessments. In some cases, bone marrow disease alone was used for disease assessment. In these cases, response was reported as CR or non-CR.
In PTCL patients, radiological assessment was performed at screening, Day 1 of Cycle 3 and 5 and approximately 12 weeks thereafter. Assessments of skin lesions in PTCL patients were performed, if applicable. Bone marrow biopsy/aspirate was performed in patients without measurable but assessable disease at screening and on Day 1 of Cycle 3 and 5, then also approximately 12 weeks thereafter to confirm a CR.
The efficacy parameters included ORR and DoR. Revised Response Criteria for Malignant Lymphoma (Cheson 2007) was used for evaluation of PTCL [21]. International Society for Cutaneous Lymphomas Response Criteria for Mycosis Fungoides and Sezary Syndrome (SS) and Cutaneous Lymphoma Task Force of the European Organization for Research and Treatment of Cancer criteria were used for evaluation of CTCL patients. For skin scoring, the modified Severity Weighted Assessment Tool was used. For local index lesion skin scoring, the Composite Assessment of Index Lesion Severity was used.

Details of data set [2]: method as in ref 27 = [27]; 27. Barde P. Rhizen, Switzerland Unpublished work 2016. Conditions: healthy volunteers, high fat meal; cited from earlier work.
[3] abbreviates: Dose Escalation 800 mg Fasting, N = 1.
Setting [4] is: Dose Expansion 800 mg Fasting, N = 10.

“And” between values parts separate entries of the source, which are not always exact repeats. Equal values may be shown once.

For `CC[C@H](Nc1ncnc2[nH]cnc12)c1oc2ccccc2c(=O)c1-c1cccc(F)c1` [Tenalisib], the “Partial response (PR)” value in data set [1] (PTCL patients) is 4 (26.7%) n (%). The “Complete response (CR)” value in data set [1] (PTCL patients, three patients) was determined as 20%. Moreover, the “Median DoR (95% CI)” value in data set [1] (Cumulative Total, N = 15) was 6.5 months and 6.5 (2.9, 14.9) months; in data set [1] (Dose Escalation 200 mg, N = 2), 4.9 (-,-) months; in data set [1] (Dose Escalation 400 mg, N = 1), 0.97 (-,-) months; in data set [1] (setting [3]), 19.5 (-,-) months; in data set [1] (Dose Escalation Total, N = 5) it was 4.9 (0.0, 19.5) months; in data set [1] (setting [4]), 7.0 (1.2, 17.3) months. For the same molecule, the “ORR (95% CI)” value in data set [1] (Cumulative Total, N = 15) is 46.7% and 46.7 (21.3, 73.4) %; in data set [1] (Dose Escalation 200 mg, N = 2), 50.0 (1.3, 98.7) %; in data set [1] (Dose Escalation 400 mg, N = 1), 100.0 (2.5, 100.0) %; in data set [1] (setting [3]), 100.0 (2.5, 100.0) %; in data set [1] (Dose Escalation 800 mg Fed, N = 1), 0.0 (0.0, 97.5) %; in data set [1] (Dose Escalation Total, N = 5), 60.0 (14.7, 94.7) %. For the same molecule, in data set [1] (setting [4]), the “ORR (95% CI)” value was 40.0 (12.2, 73.8) %. The “Median DoR” value in data set [1] (three PTCL patients who achieved CR) is listed as 13.3 months. Moreover, the “Effect of food on Cmax” value in data set [2] is given as “no significant effect on Cmax”. For the same molecule, the “Effect of food on overall exposure” value in data set [2] is on record as “increased the overall exposure”.
